The values that follow come from PubChem BioAssay (NCI).

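Protocol summary: plate cells (96-well), add compound at 5 concentrations, incubate 48 h, interpolate endpoints linearly. The concentration for 50% growth inhibition is given as GI50. TGI marks complete inhibition of growth.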

Among the test systems are OVCAR-5 ovarian; HCT-15 colon; MOLT-4 leukemia; U251 CNS; NCI-H522 lung; MALME-3M melanoma; OVCAR-4 ovarian; CCRF-CEM leukemia; HT29 colon; SK-MEL-5 melanoma.
Experiment in all cases: NCI anticancer screen, dose series, 48 h

As to `Cc1ccc2nc(-c3ccc(N(C)C)c(Br)c3)cn2c1`, the GI50 was above 100 µM in the assay on OVCAR-5 ovarian; 4.19 µM with HCT-15 colon; 3.99 µM in the assay on MOLT-4 leukemia; 7.19 µM in the assay with U251 CNS; above 100 µM in the assay on NCI-H522 lung; above 100 µM in the assay on MALME-3M melanoma. In addition, the GI50 was above 100 µM in the assay on OVCAR-4 ovarian, 6.52 µM with CCRF-CEM leukemia, 7.02 µM in the assay with HT29 colon and 5.78 µM in the assay with SK-MEL-5 melanoma. The TGI in the assay on OVCAR-5 ovarian, in the assay on HCT-15 colon, in the assay on MOLT-4 leukemia, in the assay on U251 CNS, with NCI-H522 lung and in the assay with MALME-3M melanoma was above 100 µM each time. Further, the TGI with OVCAR-4 ovarian, with CCRF-CEM leukemia, in the assay on HT29 colon and in the assay with SK-MEL-5 melanoma was above 100 µM in each case.
For `CC(=O)OCC(OC(C)=O)C(OC(C)=O)C(OC(C)=O)C(=O)CNn1c(-c2ccccc2Cl)nc2ccccc2c1=O` (centres undefined), the TGI in the assay on OVCAR-5 ovarian, in the assay on HCT-15 colon, in the assay on MOLT-4 leukemia, with U251 CNS, in the assay on NCI-H522 lung and with MALME-3M melanoma was above 100 µM each time. Further, the TGI with OVCAR-4 ovarian, in the assay with CCRF-CEM leukemia, in the assay with HT29 colon and in the assay on SK-MEL-5 melanoma was above 100 µM throughout.
Turning to `COC(=O)C(=O)C(C(=O)C(=O)Nc1cccc(C(C)=O)c1)c1nc2ccccc2[nH]c1=O` (centres undefined), the TGI in the assay on OVCAR-5 ovarian, with HCT-15 colon, with MOLT-4 leukemia, with NCI-H522 lung, with MALME-3M melanoma and in the assay with OVCAR-4 ovarian was above 100 µM throughout. For the same compound, the TGI in the assay with CCRF-CEM leukemia, with HT29 colon and in the assay on SK-MEL-5 melanoma was above 100 µM throughout.
On to `Fc1cc2[nH]ncc2c2c3c(c(-c4cn[nH]c4C(F)(F)F)nc12)C1CCC3C1` (centres undefined), for which the GI50 in the assay with OVCAR-5 ovarian was 1.19 µM; with HCT-15 colon, 1.33 µM; in the assay on MOLT-4 leukemia, 0.99 µM; in the assay with U251 CNS, 1.4 µM; in the assay on NCI-H522 lung it was 0.906 µM; in the assay on MALME-3M melanoma, 1.45 µM. The GI50 was 2.68 µM in the assay with OVCAR-4 ovarian, 1.23 µM in the assay with CCRF-CEM leukemia, 1.47 µM with HT29 colon and 0.74 µM in the assay on SK-MEL-5 melanoma. The TGI amounted to 3.72 µM in the assay on OVCAR-5 ovarian; 7.28 µM in the assay on HCT-15 colon; 4.31 µM in the assay on MOLT-4 leukemia; 5.09 µM in the assay with U251 CNS; 3.38 µM in the assay on NCI-H522 lung; 4.85 µM in the assay with MALME-3M melanoma. For the same compound, the TGI is 23.4 µM in the assay on OVCAR-4 ovarian, above 50 µM with CCRF-CEM leukemia, 10.5 µM in the assay with HT29 colon and 1.52 µM in the assay with SK-MEL-5 melanoma.
On to `Cc1ccc(-c2csc(NC(=O)CN3CCN(c4cc5c(cc4F)c(=O)c(C(=O)O)cn5C4CC4)CC3)n2)cc1`, for which the GI50 is 3.48 µM with OVCAR-5 ovarian; 0.441 µM in the assay with HCT-15 colon; 1.23 µM with MOLT-4 leukemia; 0.388 µM in the assay with U251 CNS; 0.322 µM in the assay with NCI-H522 lung; 1.75 µM in the assay with MALME-3M melanoma. In addition, the GI50 in the assay with OVCAR-4 ovarian was 2.38 µM; with CCRF-CEM leukemia, 0.569 µM; with HT29 colon it was 0.326 µM; in the assay on SK-MEL-5 melanoma, 1.02 µM. Besides, the TGI is 39.8 µM with OVCAR-5 ovarian; above 100 µM in the assay with HCT-15 colon; above 100 µM with MOLT-4 leukemia; 13.4 µM in the assay on U251 CNS; 3.09 µM in the assay on NCI-H522 lung; 7.14 µM with MALME-3M melanoma. Besides, the TGI in the assay on OVCAR-4 ovarian was above 100 µM; in the assay with CCRF-CEM leukemia, above 100 µM; in the assay on HT29 colon it was 6.91 µM; in the assay with SK-MEL-5 melanoma, 2.89 µM.
Take `O=C(c1ccncc1)n1nc(-c2ccccc2)c(N=Nc2ccccc2[N+](=O)[O-])c1-c1ccccc1`: the TGI in the assay with MOLT-4 leukemia, with NCI-H522 lung, in the assay on MALME-3M melanoma, with OVCAR-4 ovarian, with CCRF-CEM leukemia and in the assay with HT29 colon was above 100 µM each time. Further, the TGI in the assay with SK-MEL-5 melanoma is above 100 µM.
Consider `Cc1cccc(-n2c(=S)[nH]c3c(sc(=O)n3-c3ccccc3C)c2=O)c1`, for which the TGI in the assay with OVCAR-5 ovarian, in the assay on HCT-15 colon, with MOLT-4 leukemia, in the assay with U251 CNS, in the assay on NCI-H522 lung and in the assay with MALME-3M melanoma was above 100 µM throughout. The TGI with OVCAR-4 ovarian, in the assay on CCRF-CEM leukemia, with HT29 colon and in the assay with SK-MEL-5 melanoma was above 100 µM in each case.
For the compound `COc1ccc(/C=C\c2cc(OC)c(O[Si](C)(C)C(C)(C)C)c(OC)c2)cc1`, the TGI was above 100 µM with OVCAR-5 ovarian; 38.8 µM in the assay on MOLT-4 leukemia; 42.2 µM in the assay with U251 CNS; above 100 µM with NCI-H522 lung; above 100 µM in the assay on MALME-3M melanoma; above 100 µM in the assay on OVCAR-4 ovarian. Moreover, the TGI in the assay with CCRF-CEM leukemia was 49.8 µM; in the assay on HT29 colon it was above 100 µM.
As to `Cc1cccc(C)c1NC(=O)C1C(=O)N(c2c(C)cccc2C)C(=O)/C1=N\NC(N)=S` (centres undefined), the TGI with OVCAR-5 ovarian, with HCT-15 colon, with MOLT-4 leukemia, in the assay with U251 CNS, in the assay on NCI-H522 lung and in the assay with MALME-3M melanoma was above 100 µM each time. In addition, the TGI in the assay on OVCAR-4 ovarian, in the assay on CCRF-CEM leukemia, with HT29 colon and in the assay on SK-MEL-5 melanoma was above 100 µM throughout.
Turning to `Cc1cc2c(cc1Cl)SC1=NN(C)C(N(C)C)N1S2(=O)=O` (centres undefined), the GI50 with OVCAR-5 ovarian, in the assay with HCT-15 colon, in the assay on MOLT-4 leukemia, in the assay on U251 CNS, in the assay with NCI-H522 lung and in the assay with MALME-3M melanoma was above 100 µM throughout. Further, the GI50 in the assay on OVCAR-4 ovarian, in the assay with CCRF-CEM leukemia, in the assay on HT29 colon and in the assay on SK-MEL-5 melanoma was above 100 µM each time. For the same compound, the TGI with OVCAR-5 ovarian, with HCT-15 colon, with MOLT-4 leukemia, in the assay with U251 CNS, in the assay on NCI-H522 lung and in the assay with MALME-3M melanoma was above 100 µM each time. In addition, the TGI in the assay on OVCAR-4 ovarian, in the assay with CCRF-CEM leukemia, in the assay on HT29 colon and in the assay on SK-MEL-5 melanoma was above 100 µM each time.
